Test results: patent US12077503B2, “Substituted cyclic amides and their use as herbicides” (FMC CORPORATION, priority 2015, dated 2024)
Where two headings read alike, the source gives them in different places.

What was measured:
Assay type in all cases: in vivo
[1] = system: barnyardgrass (Echinochloa crus-galli); experiment: Test B flooded paddy test; conditions: Echinochloa crus-galli, Flood, 250 g ai/ha, read-out: Barnyardgrass plant response rating
Method in brief: (§1)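 Percent control, visually estimated after 13–15 d in the greenhouse on a 0–100 basis, compares treated pots with untreated ones; compound was put into paddy water 3 cm above the soil when plants had two leaves.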

[2] = system: ducksalad (Heteranthera limosa); experiment: Test B flooded paddy test; conditions: Heteranthera limosa, Flood, 250 g ai/ha, read-out: Ducksalad plant response rating
Method in brief: as §1

[3] = system: rice (Oryra sativa); experiment: Test B flooded paddy test; conditions: Oryza sativa, Flood, 250 g ai/ha, read-out: Rice plant response rating
Method in brief: as §1

[4] = system: sedge, umbrella (small-flower umbrella sedge, Cyperus difformis); experiment: Test B flooded paddy test; conditions: Cyperus difformis, Flood, 250 g ai/ha, read-out: Sedge, Umbrella plant response rating
Method in brief: as §1

[5] = system: corn (Zea mays); experiment: Test A postemergence; conditions: Zea mays, post-emergence, 240 h; for Corn plant response rating (crop injury, 0 = no effect, 100 = complete kill) at 125 g/ha: visual injury after approximately 10 d
Method in brief: (§2)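 Visual injury scores from 0, no effect, to 100, complete control, were assigned versus untreated controls roughly 10 d after treatment in the greenhouse. Test chemicals, formulated with surfactant in a non-phytotoxic solvent, were applied to planted seeds as a preemergence soil spray or postemergence to one- to two-leaf plants 2 to 10 cm tall, in loam–sand soil.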

[6] = system: barnyardgrass (Echinochloa crus-galli); experiment: Test A postemergence; conditions: Echinochloa crus-galli, post-emergence, 240 h; for pest or weed control at 125 g/ha: 125 g ai/ha, postemergence
Method in brief: as §2

[7] = system: wheat (Triticum aestivum); experiment: Test A postemergence; conditions: Triticum aestivum, post-emergence, 240 h; for plant injury at 125 g/ha: 125 g ai/ha, postemergence
Method in brief: as §2

[8] = system: pigweed (Amaranthus retroflexus); experiment: Test A postemergence; conditions: Amaranthus retroflexus, post-emergence, 240 h; for pest or weed control at 125 g/ha: 125 g ai/ha, postemergence
Method in brief: as §2

[9] = system: Galium (catchweed bedstraw, Galium aparine); experiment: Test A postemergence; conditions: Galium, post-emergence, 240 h; for pest or weed control at 125 g/ha: 125 g ai/ha, postemergence
Method in brief: as §2

[10] = system: giant foxtail (Setaria faberii); experiment: Test A postemergence; conditions: Setaria faberi, post-emergence, 240 h; for pest or weed control at 125 g/ha: 125 g ai/ha, postemergence
Method in brief: as §2

[11] = system: Kochia (Kochia scoparia); experiment: Test A postemergence; conditions: Bassia scoparia, post-emergence, 240 h; for pest or weed control at 125 g/ha: 125 g ai/ha, postemergence
Method in brief: as §2

[12] = system: ryegrass, Italian (Italian ryegrass, Lolium multiflorum); experiment: Test A postemergence; conditions: Lolium multiflorum, post-emergence, 240 h; for pest or weed control at 125 g/ha: 125 g ai/ha, postemergence
Method in brief: as §2

[13] = system: blackgrass (Alopecurus myosuroides); experiment: Test A postemergence; conditions: Alopecurus myosuroides, post-emergence, 240 h; for pest or weed control at 125 g/ha: 125 g ai/ha, postemergence
Method in brief: as §2

[14] = system: ragweed (common ragweed, Ambrosia elatior); experiment: Test A postemergence; conditions: Ambrosia artemisiifolia, post-emergence, 240 h; for pest or weed control at 125 g/ha: 125 g ai/ha, postemergence
Method in brief: as §2

[15] = system: Kochia (Kochia scoparia); experiment: Test A preemergence; conditions: Bassia scoparia, pre-emergence, 240 h, preemergence; for pest or weed control at 125 g/ha: 125 g ai/ha; for pest or weed control at 500 g/ha: 500 g ai/ha
Method in brief: as §2

[16] = scale of 0 to 100 where 0 is no effect and 100 is complete control
[17] = 125 g ai/ha, postemergence, 0 to 100 scale (0 no effect, 100 complete control)
[18] = visual injury after approximately 10 d, 0 to 100 scale (0 no effect, 100 complete control), read-out: Plant response rating, Barnyardgrass
[19] = visual injury after approximately 10 d, 0 to 100 scale (0 no effect, 100 complete control), read-out: Plant response rating, Wheat
[20] = visual injury after approximately 10 d, 0 to 100 scale (0 no effect, 100 complete control), read-out: Plant response rating, Pigweed
[21] = visual injury after approximately 10 d, 0 to 100 scale (0 no effect, 100 complete control), read-out: Plant response rating, Galium
[22] = visual injury after approximately 10 d, 0 to 100 scale (0 no effect, 100 complete control), read-out: Plant response rating, Foxtail, Giant
[23] = visual injury after approximately 10 d, 0 to 100 scale (0 no effect, 100 complete control), read-out: Plant response rating, Kochia
[24] = visual injury after approximately 10 d, 0 to 100 scale (0 no effect, 100 complete control), read-out: Plant response rating, Ryegrass, Italian
[25] = visual injury after approximately 10 d, 0 to 100 scale (0 no effect, 100 complete control), read-out: Plant response rating, Blackgrass
[26] = visual injury after approximately 10 d, 0 to 100 scale (0 no effect, 100 complete control), read-out: Plant response rating, Ragweed
[27] = visual rating after approx. 10 d, 0 to 100 scale where 0 is no effect and 100 is complete control, read-out: Plant response rating, Kochia
[28] = 0 to 100 scale, 0 = no effect, 100 = complete control, read-out: Plant response rating, Kochia
[29] = 0 to 100 scale where 0 is no effect and 100 is complete control

Work on CN1C[C@H](c2cc(F)cc(F)c2)[C@@H](C(=O)Nc2c(F)cccc2F)C1=O [Compound 759] yielded a pest or weed control at 250 g/ha [1, 16] of 0%, a pest or weed control at 250 g/ha [2, 16] of 0% and a pest or weed control at 250 g/ha [3, 16] of 0%. It also gave a pest or weed control at 250 g/ha [4, 16] of 0%, a Corn plant response rating (crop injury, 0 = no effect, 100 = complete kill) at 125 g/ha [5, 17] of 0% and a pest or weed control at 125 g/ha [6, 18] of 70%. For the same compound, the plant injury at 125 g/ha [7, 19] was 0%, the pest or weed control at 125 g/ha [8, 20] was 0% and the pest or weed control at 125 g/ha [9, 21] was 0%. For the same compound, the pest or weed control at 125 g/ha [10, 22] was 20%, the pest or weed control at 125 g/ha [11, 23] was 0% and the pest or weed control at 125 g/ha [12, 24] was 0%. For the same compound, the pest or weed control at 125 g/ha [13, 25] was 0%, the pest or weed control at 125 g/ha [14, 26] was 0% and the pest or weed control at 125 g/ha [15, 27] was 0%. It also gave a pest or weed control at 500 g/ha [15, 28] of 20%.

In the case of CN1C[C@H](c2cccc(C(F)(F)F)c2)[C@@H](C(=O)Nc2ccc(F)cc2C(F)(F)F)C1=O [Compound 1250], the pest or weed control at 250 g/ha [1, 29] is reported as 50%, the pest or weed control at 250 g/ha [2, 29] is reported as 100% and the pest or weed control at 250 g/ha [3, 29] is reported as 0%. The pest or weed control at 250 g/ha [4, 29] was 0%, the plant injury at 125 g/ha ([5]; 125 g ai/ha, postemergence, visual injury vs untreated controls after approx. 10 d, 0 = no effect, 100 = complete control, read-out: Corn plant response rating (0 to 100 scale)) was 40% and the Corn plant response rating (crop injury, 0 = no effect, 100 = complete kill) at 500 g/ha ([5]; Postemergence, 500 g ai/ha, visual injury, 0 to 100 scale (0 no effect, 100 complete control), approx. 10 d) was 70%. It also gave a pest or weed control at 125 g/ha ([6]; visual injury vs untreated controls after approx. 10 d, 0 = no effect, 100 = complete control, read-out: Barnyardgrass plant response rating (0 to 100 scale)) of 70%, a pest or weed control at 500 g/ha ([6]; Postemergence, 500 g ai/ha, visual injury, 0 to 100 scale (0 no effect, 100 complete control), approx. 10 d, read-out: Plant response rating, Barnyardgrass) of 90% and a plant injury at 125 g/ha ([7]; visual injury vs untreated controls after approx. 10 d, 0 = no effect, 100 = complete control, read-out: Wheat plant response rating (0 to 100 scale)) of 40%. For the same compound, the plant injury at 500 g/ha ([7]; Postemergence, 500 g ai/ha, visual injury, 0 to 100 scale (0 no effect, 100 complete control), approx. 10 d, read-out: Plant response rating, Wheat) was 70%, the pest or weed control at 125 g/ha ([8]; visual injury vs untreated controls after approx. 10 d, 0 = no effect, 100 = complete control, read-out: Pigweed plant response rating (0 to 100 scale)) was 0% and the pest or weed control at 500 g/ha ([8]; Postemergence, 500 g ai/ha, visual injury, 0 to 100 scale (0 no effect, 100 complete control), approx. 10 d, read-out: Plant response rating, Pigweed) was 30%. For the same compound, the pest or weed control at 125 g/ha ([9]; visual injury vs untreated controls after approx. 10 d, 0 = no effect, 100 = complete control, read-out: Galium plant response rating (0 to 100 scale)) was 40%, the pest or weed control at 500 g/ha ([9]; Postemergence, 500 g ai/ha, visual injury, 0 to 100 scale (0 no effect, 100 complete control), approx. 10 d, read-out: Plant response rating, Galium) was 60% and the pest or weed control at 125 g/ha ([10]; visual injury vs untreated controls after approx. 10 d, 0 = no effect, 100 = complete control, read-out: Foxtail, Giant plant response rating (0 to 100 scale)) was 80%. For the same compound, the pest or weed control at 500 g/ha ([10]; Postemergence, 500 g ai/ha, visual injury, 0 to 100 scale (0 no effect, 100 complete control), approx. 10 d, read-out: Plant response rating, Foxtail, Giant) was 80%, the pest or weed control at 125 g/ha ([11]; visual injury vs untreated controls after approx. 10 d, 0 = no effect, 100 = complete control, read-out: Kochia plant response rating (0 to 100 scale)) was 0% and the pest or weed control at 500 g/ha ([11]; Postemergence, 500 g ai/ha, visual injury, 0 to 100 scale (0 no effect, 100 complete control), approx. 10 d, read-out: Plant response rating, Kochia) was 20%. For the same compound, the pest or weed control at 125 g/ha ([12]; visual injury vs untreated controls after approx. 10 d, 0 = no effect, 100 = complete control, read-out: Ryegrass, Italian plant response rating (0 to 100 scale)) was 20%, the pest or weed control at 500 g/ha ([12]; Postemergence, 500 g ai/ha, visual injury, 0 to 100 scale (0 no effect, 100 complete control), approx. 10 d, read-out: Plant response rating, Ryegrass, Italian) was 50% and the pest or weed control at 125 g/ha ([13]; visual injury vs untreated controls after approx. 10 d, 0 = no effect, 100 = complete control, read-out: Blackgrass plant response rating (0 to 100 scale)) was 20%. It also gave a pest or weed control at 500 g/ha ([13]; Postemergence, 500 g ai/ha, visual injury, 0 to 100 scale (0 no effect, 100 complete control), approx. 10 d, read-out: Plant response rating, Blackgrass) of 60%, a pest or weed control at 125 g/ha ([14]; visual injury vs untreated controls after approx. 10 d, 0 = no effect, 100 = complete control, read-out: Ragweed plant response rating (0 to 100 scale)) of 0% and a pest or weed control at 500 g/ha ([14]; Postemergence, 500 g ai/ha, visual injury, 0 to 100 scale (0 no effect, 100 complete control), approx. 10 d, read-out: Plant response rating, Ragweed) of 0%. For the same compound, the pest or weed control at 125 g/ha ([15]; visual injury rating, 0 to 100 scale where 0 is no effect and 100 is complete control, approximately 10 d, read-out: Kochia plant response rating) was 0% and the pest or weed control at 500 g/ha ([15]; 0 to 100 scale where 0 is no effect and 100 is complete control, read-out: Kochia plant response rating) was 40%.

CCc1ccc([C@H]2CNC(=S)[C@@H]2C(=O)Nc2cccc(F)c2C)cc1 [Compound 761] was tested, and the pest or weed control at 250 g/ha [1, 16] was 0%, the pest or weed control at 250 g/ha [2, 16] was 95% and the pest or weed control at 250 g/ha [3, 16] was 0%. It also gave a pest or weed control at 250 g/ha [4, 16] of 0%, a Corn plant response rating (crop injury, 0 = no effect, 100 = complete kill) at 125 g/ha [5, 17] of 0% and a pest or weed control at 125 g/ha [6, 18] of 70%. The plant injury at 125 g/ha [7, 19] was 0%, the pest or weed control at 125 g/ha [8, 20] was 0% and the pest or weed control at 125 g/ha [9, 21] was 0%. It also gave a pest or weed control at 125 g/ha [10, 22] of 60%, a pest or weed control at 125 g/ha [11, 23] of 0% and a pest or weed control at 125 g/ha [12, 24] of 0%. For the same compound, the pest or weed control at 125 g/ha [13, 25] was 0%, the pest or weed control at 125 g/ha [14, 26] was 0% and the pest or weed control at 125 g/ha [15, 27] was 30%. For the same compound, the pest or weed control at 500 g/ha [15, 28] was 80%.
